Assay results as given in US10336732B2, “1-heterocyclyl isochromanyl compounds and analogs for treating CNS disorders” (Sunovion Pharmaceuticals Inc., priority 2015, dated 2019).

These molecules were tested against T1, 5-HT2C (Homo sapiens, UniProt P28335) (assay: In vitro radioligand binding assay, 5-HT2C, [3H]mesulergine). Details: human recombinant (HEK-293 cells).
T1 construct: expressed in transfected cells; host or cells: HEK-293 cells
T1 sequence (P28335 33-458): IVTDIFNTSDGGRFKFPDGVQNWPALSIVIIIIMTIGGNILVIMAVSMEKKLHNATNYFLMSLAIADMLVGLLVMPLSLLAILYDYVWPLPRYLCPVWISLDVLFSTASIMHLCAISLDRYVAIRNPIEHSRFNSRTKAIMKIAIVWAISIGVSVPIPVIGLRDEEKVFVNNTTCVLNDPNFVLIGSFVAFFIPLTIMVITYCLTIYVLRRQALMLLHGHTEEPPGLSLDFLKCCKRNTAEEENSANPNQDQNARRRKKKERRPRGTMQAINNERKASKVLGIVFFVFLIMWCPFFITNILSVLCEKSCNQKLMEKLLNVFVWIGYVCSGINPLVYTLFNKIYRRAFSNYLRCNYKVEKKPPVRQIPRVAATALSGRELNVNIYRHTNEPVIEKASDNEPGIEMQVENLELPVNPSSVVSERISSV
Design: concentration or dose not given beside the values
Procedure: Certain compounds were tested by in vitro binding assays using standard procedures. […] These receptors and assays are well known to those skilled in the art, as exemplified by the following: Abramovitz, M. et al. (2000), Biochem. Biophys. Acta., 1483: 285-293 (EP4, IP (PGI2)); Aharony, D. et al. (1993), Mol. Pharmacol., 44: 356-363 (NK2); Ardati, A. et al. (1997), Mol. Pharmacol., 51: 816-824 (NOP (ORL1)); Bignon, E. et al. (1999), J. Pharmacol. Exp. Ther. 289: 742-751 (CCK1 (CCKA)); Bloomquist, B. T. et al. (1998), Biochem. Biophys. Res. Commun., 243: 474-479 (GAL2); Brockhaus, M. et al. (1990), Proc. Natl. Acad. Sci. U.S.A., 87: 3127-3131 (TNF-α); Brown, G. B. (1986), J. Neurosci., 6: 2064-2070 (Na+ channel (site 2)); Buchan, K. W. et al. (1994), Brit. J. Pharmacol., 112: 1251-1257 (ETA); Cesura, A. M. et al. (1990), Mol. Pharmacol., 37: 358-366 (MAO-A); Choi, D. S. et al. (1994), FEBS Lett., 352: 393-399 (5-HT2B); Clark, A. F. et al. (1996), Invest. Ophtalmol. Vis. Sci., 37: 805-813 (GR); Couvineau, A. et al. (1985), Biochem. J., 231: 139-143 (VPAC1 (VIP1)); Dorje, F. et al. (1991), J. Pharmacol. Exp. Ther., 256: 727-733 (M1, M2, M3, M4); Ferry, G. et al. (2001), Eur. J. Pharmacol., 417: 77-89 (PPARγ); Fuchs, S. et al. (2001), Mol. Med., 7: 115-124 (ETB); Fuhlendorff, J. et al. (1990), Proc. Natl. Acad. Sci. U.S.A., 87: 182-186 (Y2); Ganapathy M E. et al. (1999), J. Pharmacol. Exp. Ther., 289: 251-260 (sigma (non-selective)); Gopalakrishnan, M. et al. (1996), J. Pharmacol. Exp. Ther., 276: 289-297 (N neuronal α4β2); Greengrass, P. and Bremner, R. (1979), Eur. J. Pharmacol., 55: 323-326 (α1 (non-selective)); Grandy, D. K. et al. (1989), Proc. Natl. Acad. Sci. U.S.A., 86: 9762-9766 (D25); Guard, S. et al. (1993), Eur. J. Pharmacol., 240:177-184 (BB (non-selective)); Heuillet, E. et al. (1993), J. Neurochem., 60: 868-876 (NK1, P2X); Hope, A. G. et al. (1996), Brit. J. Pharmacol., 118: 1237-1245 (5-HT3); Hoyer, D. et al. (1985), Eur. J. Pharmacol., 118: 1-12 (5-HT1B); Hugues, M. et al. (1982), J. Biol. Chem., 257: 2762-2769 (5-HT2A, SKCa channel); Joseph, S. S. et al. (2004), Naun.-Sch. Arch. Pharm., 369: 525-532 (β2); Le, M. T. et al. (2005), Eur. J. Pharmacol., 513: 35-45 (AT1); Le Fur, G. et al. (1983), Life Sci., 33: 449-457) (BZD (peripheral); Lee, Y. M. et al. (1993), J. Biol. Chem., 268: 8164-8169 (CCK2 (CCKB)); Leurs, R. et al. (1994), Brit. J. Pharmacol., 112: 847-854 (H2); Levin, M. C. et al. (2002), J. Biol. Chem., 277: 30429-30435 (11); Lewin, A. H. et al. (1989), Mol. Pharmacol., 35: 189-194 (Cl− channel (GABA-gated)); Lukas, R. J. (1986), J. Neurochem., 46: 1936-1941 (N muscle-type); Luthin, D. R. et al. (1995), Mol. Pharmacol., 47: 307-313; (A2A); Mackenzie, R. G. et al. (1994), Eur. J. Pharmacol., 266: 79-85 (D3); Mulheron, J. G. et al. (1994), J. Biol. Chem., 269: 12954-12962 (5-HT1A); Meng, F. et al. (1993), Proc. Natl. Acad. Sci. U.S.A., 90: 9954-9958 (κ (KOP)); Monsma, F. J. et al. (1993), Mol. Pharmacol., 43: 320-327 (5-HT6); Neote, K. et al. (1993), Cell, 72: 415-425 (CCR1); Pacholczyk, T. et al. (1991), Nature, 350: 350-354 (sst (non-selective, norepinephrine transporter)); Peralta, E. G. et al. (1987), Embo. J., 6: 3923-3929 (M3); Pristupa, Z. B. et al. (1994), Mol. Pharmacol., 45: 125-135 (dopamine transporter); Pruneau, D. et al. (1998), Brit. […]

Compound	5HT2c percent inhibition of specific binding
Fc1ccc2c(c1)CCO[C@H]2[C@@H]1CCCN1 [Compound I-9, (S)-2-((R)-6-fluoroisochroman-1-yl)pyrrolidine]	61%
Fc1ccc2c(c1)CCO[C@H]2[C@@H]1CCN1 [Compound I-90, (S)-2-((R)-6-fluoroisochroman-1-yl)azetidine]	59%
Fc1cccc2c1[C@H]([C@@H]1CCCN1)OCC2 [Compound I-1, (S)-2-((R)-8-fluoroisochroman-1-yl)pyrrolidine]	63%
Fc1cccc2c1[C@H]([C@@H]1CCN1)OCC2 [Compound I-83, (S)-2-((R)-8-fluoroisochroman-1-yl)azetidine]	64%
Clc1ccc2c(c1)[C@H]([C@@H]1CCCN1)OCC2 [Compound I-29, (S)-2-((R)-7-chloroisochroman-1-yl)pyrrolidine]	67%
